Reference: the supplement of paper PMC10307832

Key:
Assay in all cases: relative viability (nuclei count vs DMSO), 5 days (fraction); higher = more cells survive
Bexarotene + Palbociclib = compound: C=C(c1ccc(C(=O)O)cc1)c1cc2c(cc1C)C(C)(C)CCC2(C)C [Bexarotene] + CC(=O)c1c(C)c2cnc(Nc3ccc(N4CCNCC4)cn3)nc2n(C2CCCC2)c1=O [Palbociclib] (partner 0.5 µM)
Method in brief: (§1)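 Lung cancer cell lines in 1536-well plates were dosed by pin tool the day after seeding, either with one drug alone or with a fixed anchor-drug dose plus five library-drug doses (not always all listed) in √10 steps. After 5 days, cells were fixed and their nuclei stained in one step (final 0.05% Triton X-100, 1% formaldehyde, 1 ug/ml Hoechst), then counted on 4× images. Relative viability is the nuclei count in treated wells divided by that in vehicle wells. Values are medians of duplicate plates.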

Bexarotene + Crizotinib = compound: C=C(c1ccc(C(=O)O)cc1)c1cc2c(cc1C)C(C)(C)CCC2(C)C [Bexarotene] + C[C@@H](Oc1cc(-c2cnn(C3CCNCC3)c2)cnc1N)c1c(Cl)ccc(F)c1Cl [Crizotinib] (partner 1 µM)
Method in brief: as §1

Bexarotene + AZD7762 = compound: C=C(c1ccc(C(=O)O)cc1)c1cc2c(cc1C)C(C)(C)CCC2(C)C [Bexarotene] + NC(=O)Nc1cc(-c2cccc(F)c2)sc1C(=O)N[C@H]1CCCNC1 [AZD7762] (partner 0.2 µM)
Method in brief: as §1

Bexarotene + Vorinostat = compound: C=C(c1ccc(C(=O)O)cc1)c1cc2c(cc1C)C(C)(C)CCC2(C)C [Bexarotene] + O=C(CCCCCCC(=O)Nc1ccccc1)NO [Vorinostat] (partner 1 µM)
Method in brief: as §1

Cell Line | relative viability (Bexarotene + Palbociclib; first compound 0.08 µM) | relative viability (Bexarotene + Palbociclib; first compound 0.253 µM) | relative viability (Bexarotene + Palbociclib; first compound 0.8 µM) | relative viability (Bexarotene + Palbociclib; first compound 2.53 µM) | relative viability (Bexarotene + Palbociclib; first compound 8 µM) | relative viability (Bexarotene + Crizotinib; first compound 0.08 µM) | relative viability (Bexarotene + Crizotinib; first compound 0.253 µM) | relative viability (Bexarotene + Crizotinib; first compound 0.8 µM) | relative viability (Bexarotene + Crizotinib; first compound 2.53 µM) | relative viability (Bexarotene + Crizotinib; first compound 8 µM) | relative viability (Bexarotene + AZD7762; first compound 0.08 µM) | relative viability (Bexarotene + AZD7762; first compound 0.253 µM) | relative viability (Bexarotene + AZD7762; first compound 0.8 µM) | relative viability (Bexarotene + AZD7762; first compound 2.53 µM) | relative viability (Bexarotene + AZD7762; first compound 8 µM) | relative viability (Bexarotene + Vorinostat; first compound 0.08 µM) | relative viability (Bexarotene + Vorinostat; first compound 0.253 µM) | relative viability (Bexarotene + Vorinostat; first compound 0.8 µM) | relative viability (Bexarotene + Vorinostat; first compound 2.53 µM) | relative viability (Bexarotene + Vorinostat; first compound 8 µM)
HCC-366 | 0.424 | 0.42 | 0.365 | 0.416 | 0.4 | 0.526 | 0.62 | 0.35 | 0.574 | 0.586 | 0.412 | 0.397 | 0.284 | 0.279 | 0.358 | 0.361 | 0.487 | 0.329 | 0.276 | 0.328
HCC-827 | 0.508 | 0.497 | 0.466 | 0.482 | 0.497 | 0.894 | 0.939 | 0.902 | 0.94 | 0.915 | 0.227 | 0.213 | 0.405 | 0.196 | 0.36 | 0.906 | 0.674 | 0.775 | 0.781 | 0.821
IA-LM |  |  |  |  |  |  | 1.03 | 0.676 | 0.678 | 0.62 |  |  |  |  |  | 0.79 | 0.817 | 0.756 | 0.718 | 0.7
NCI-H520 | 0.271 | 0.182 | 0.198 | 0.229 | 0.207 | 0.989 | 0.735 | 0.649 | 0.775 | 0.659 |  |  |  |  |  | 0.781 | 0.695 | 0.778 | 0.775 | 0.716
NCI-H596 |  |  |  |  |  | 1.05 | 1.01 | 0.871 | 0.973 | 1.05 | 1.19 | 1.01 | 1.01 | 0.976 | 1.02 | 0.655 | 0.69 | 0.414 | 0.533 | 0.602
NCI-H661 | 0.407 | 0.422 | 0.447 | 0.401 | 0.405 | 0.866 | 1.13 | 1.02 | 0.96 | 1.04 |  |  |  |  |  | 0.876 | 0.814 | 0.878 | 0.861 | 0.808
NCI-H1299 |  |  |  |  |  | 1 | 1.03 | 1.03 | 0.964 | 1.02 |  |  |  |  |  |  |  |  |  | 
NCI-H1395 | 0.583 | 0.638 | 0.615 | 0.618 | 0.618 |  |  |  |  |  | 0.399 | 0.432 | 0.39 | 0.407 | 0.39 | 0.963 | 0.775 | 0.723 | 0.49 | 0.73
NCI-H1563 |  |  |  |  |  | 0.842 | 0.843 | 0.916 | 0.876 | 0.81 |  |  |  |  |  |  |  |  |  | 
NCI-H1648 | 0.222 | 0.313 | 0.229 | 0.235 | 0.23 |  |  |  |  |  | 0.615 | 0.57 | 0.623 | 0.695 | 0.627 | 0.477 | 0.422 | 0.455 | 0.518 | 0.639
NCI-H1650 | 0.355 | 0.285 | 0.279 | 0.271 | 0.282 | 0.842 | 0.927 | 0.788 | 1.04 | 0.777 |  |  |  |  |  | 0.524 | 0.548 | 0.579 | 0.676 | 0.736
NCI-H1703 |  |  |  |  |  | 0.414 | 0.601 | 0.57 | 0.421 | 0.522 | 0.157 | 0.128 | 0.127 | 0.115 | 0.119 |  |  |  |  | 
NCI-H1792 | 0.706 | 0.611 | 0.616 | 0.588 | 0.607 | 0.859 | 0.947 | 0.874 | 0.737 | 0.831 | 0.64 | 0.572 | 0.526 | 0.593 | 0.526 |  |  |  |  | 
NCI-H1793 | 0.31 | 0.318 | 0.284 | 0.264 | 0.327 |  |  |  |  |  | 0.442 | 0.68 | 0.511 | 0.505 | 0.504 | 0.666 | 0.784 | 0.611 | 0.604 | 0.601
NCI-H2009 | 0.32 | 0.239 | 0.201 | 0.226 | 0.322 | 1.16 | 0.882 | 1.08 | 1.08 | 1.06 |  |  |  |  |  | 0.692 | 0.86 | 0.845 | 0.76 | 0.834
NCI-H2023 | 0.312 | 0.423 | 0.4 | 0.359 | 0.269 | 0.609 | 0.591 | 0.715 | 0.624 | 0.494 |  |  |  |  |  | 0.644 | 0.941 | 0.619 | 0.57 | 0.528
NCI-H2228 | 0.968 | 0.603 | 0.707 | 0.702 | 0.699 | 0.512 | 0.462 | 0.374 | 0.356 | 0.458 |  |  |  |  |  | 0.784 | 0.691 | 0.787 | 0.665 | 0.887
NCI-H2342 | 0.522 | 0.556 | 0.525 | 0.54 | 0.608 |  |  |  |  |  | 0.545 | 0.5 | 0.494 | 0.488 | 0.718 | 0.758 | 0.647 | 0.666 | 0.571 | 0.731
SK-LU-1 | 0.419 | 0.394 | 0.326 | 0.393 | 0.37 | 0.926 | 1.06 |  | 0.896 | 0.717 |  |  |  |  |  | 0.924 | 0.866 |  | 0.734 | 0.672
SK-MES-1 | 0.347 | 0.352 | 0.314 | 0.313 | 0.267 | 0.995 | 1.06 | 1.01 | 1.04 | 0.925 |  |  |  |  |  | 1.2 | 1.28 | 1.11 | 1.06 | 0.936
SW 900 | 0.553 | 0.41 | 0.52 | 0.423 | 0.411 |  |  |  |  |  | 0.652 | 0.511 | 0.453 | 0.518 | 0.454 | 0.543 | 0.473 | 0.433 | 0.453 | 0.471
SW 1573 | 0.362 | 0.327 | 0.378 | 0.354 | 0.288 | 0.764 | 0.82 | 0.688 | 0.684 | 0.552 |  |  |  |  |  | 0.918 | 0.645 | 1.11 | 0.635 | 0.746
UMC-11 | 0.308 | 0.355 | 0.316 | 0.267 | 0.339 | 0.546 | 0.684 | 0.537 | 0.572 | 0.587 |  |  |  |  |  | 0.357 | 0.379 | 0.408 | 0.377 | 0.346
